# Source: US20170304386A1, “METHOD FOR INHIBITING SURVIVAL, TUMORIGENESIS AND METASTASIS OF CANCER CELLS AND/OR CANCER STEM CELLS” (priority 2014, published 2017)
# Experiments:
# [1] = test system: culture-enriched TICs (SPH) of HT29 and ALDH+ cells isolated from HCW primary liver metastasis cancer cells and fresh cancer cells; assay: TUNEL assay of TICs cultured in spheroid (suspension) condition; type: cell-based, human; details: spheroid condition 24 hours; S3I-201 50 μM
# Protocol: FIGS. 8a-8f show the suspension survival ability determines tumourigenicity and corresponds to clinical tumour staging and survival. […] FIGS. 8b and 8c show the culture-enriched TICs (SPH) of HT29 and ALDH^+ cells isolated from HCW primary liver metastasis cancer cells and fresh cancer cells were cultured in spheroid condition for 24 hours with treatment of STAT3 inhibitor (S3I-201, 50 μM) or 1:25 dilution of the 0.25 mg/ml anti-Col XVII antibody, followed by TUNEL assay. (Ab-1, Abcam; Ab-2, Pierce). […] FIG. 8e (top), representative pictures of positive staining of colorectal tumour tissues (different stages) are shown, FIG. 8e (bottom), quantification and the correlation between protein expression and tumour stages was subsequently determined. The results are expressed as percentage of DAB positive cells and every single plot represents a patient. The median is shown as a single black line. […] The expression of pS727STAT≧40% or Col XVII 50% was regarded as positive. Asterisks indicate significant differences determined by Fisher's exact test, one-way ANOVA, and log-rank test. […]
# Detection of apoptosis was performed (Roche Molecular Biochemicals, Indianapolis, Ind.). […] Immunofluorescence is observed with fluorescence microscope.
# enriched TICs (HT29) = assay: Tumourigenicity of enriched TICs (xenograft transplantation); type: in vivo, athymic nude mice; details: TICs directly treated with S3I-201 50 μM, or S3I-201 5 mg/kg intravenously post injection of TICs
# Protocol: FIGS. 8a-8f show the suspension survival ability determines tumourigenicity and corresponds to clinical tumour staging and survival. […] FIGS. 8b and 8c show the culture-enriched TICs (SPH) of HT29 and ALDH^+ cells isolated from HCW primary liver metastasis cancer cells and fresh cancer cells were cultured in spheroid condition for 24 hours with treatment of STAT3 inhibitor (S3I-201, 50 μM) or 1:25 dilution of the 0.25 mg/ml anti-Col XVII antibody, followed by TUNEL assay. (Ab-1, Abcam; Ab-2, Pierce). […] FIG. 8e (top), representative pictures of positive staining of colorectal tumour tissues (different stages) are shown, FIG. 8e (bottom), quantification and the correlation between protein expression and tumour stages was subsequently determined. The results are expressed as percentage of DAB positive cells and every single plot represents a patient. The median is shown as a single black line. […] The expression of pS727STAT≧40% or Col XVII 50% was regarded as positive. Asterisks indicate significant differences determined by Fisher's exact test, one-way ANOVA, and log-rank test.
# The protocols were approved by the Institutional Animal Committee of Taipei Veterans General Hospital. […] Tumour cells were injected subcutaneously (s.c.) and tumour growth was monitored every week for up to 3 months. […]
smiles,measurement,setting,value
Cc1ccc(S(=O)(=O)OCC(=O)Nc2ccc(C(=O)O)c(O)c2)cc1 [S3I-201],killing of TICs in suspension culture (TUNEL assay),[1],killed TICs
same,tumour initiation,enriched TICs (HT29),inhibited tumour initiation
